Experimental data published in US12643905B2, “Spiropyrrolidine derived antiviral agents” (priority 2021, dated 2026).

These compounds were tested against SARS-CoV-2 3CL-protease (Severe acute respiratory syndrome coronavirus 2, UniProt P0DTD1) (assay: SARS-CoV-2 3C-like (3CL) protease fluorescence assay (FRET)). Settings: recombinant SARS-CoV-2 3CL-protease 10 nM, 30 min preincubation, run in duplicate; read-out: FRET IC50.
Type: biochemical

Question: CC(C)(C)C[C@H](NC(=O)C(=O)Nc1cnccc1C(F)(F)F)C(=O)N1C[C@]2(C[C@H]1C#N)C(=O)Nc1ccccc12 [Example 156] was tested. Which IC50 did it give?
Answer: The IC50 was less than 0.1 µM.

Question: With CC(C)(C)C[C@H](NC(=O)C(=O)Nc1cncc(C(F)(F)F)c1)C(=O)N1C[C@]2(C[C@H]1C#N)C(=O)Nc1ccccc12 [Example 157] as the compound, how does the IC50 read?
Answer: The IC50 was less than 0.1 µM.

Question: Which IC50 does the source give for CC(C)(C)C[C@H](NC(=O)C(=O)Nc1ccc(C(F)(F)F)nc1)C(=O)N1C[C@]2(C[C@H]1C#N)C(=O)Nc1ccccc12 [Example 158] here?
Answer: The IC50 was less than 0.1 µM.

Question: For CC(C)(C)C[C@H](NC(=O)C(=O)Nc1cccnc1C(F)(F)F)C(=O)N1C[C@]2(C[C@H]1C#N)C(=O)Nc1ccccc12 [Example 162], which IC50 is on record?
Answer: Its IC50 is less than 0.1 µM.

Question: Which IC50 does the source give for Cc1cccc(NC(=O)C(=O)N[C@@H](CC(C)(C)C)C(=O)N2C[C@]3(C[C@H]2C#N)C(=O)Nc2ccccc23)n1 [Example 163] here?
Answer: The IC50 was less than 0.1 µM.

Question: Which IC50 does the source give for CC(C)(C)C[C@H](NC(=O)C(=O)NC1(C)CCC1)C(=O)N1C[C@]2(C[C@H]1C#N)C(=O)Nc1ccccc12 [Example 164] here?
Answer: The IC50 was less than 0.1 µM.

Question: How did the IC50 turn out when CC(C)(C)C[C@H](NC(=O)C(=O)N[C@@H]1CC2CC[C@H](C2)C1)C(=O)N1C[C@]2(C[C@H]1C#N)C(=O)Nc1ccccc12 [Example 165] was run?
Answer: Its IC50 is less than 0.1 µM.

Question: Which IC50 does the source give for CC(C)(C)C[C@H](NC(=O)C(=O)Nc1ccc(C(F)(F)F)cc1C(F)(F)F)C(=O)N1C[C@]2(C[C@H]1C#N)C(=O)Nc1ccccc12 [Example 166] here?
Answer: The IC50 was less than 0.1 µM.

Question: Which IC50 does the source give for N#C[C@@H]1C[C@@]2(CN1C(=O)[C@H](CC1CC1)NC(=O)C(=O)Nc1ncccc1C(F)(F)F)C(=O)Nc1ccccc12 [Example 167] here?
Answer: Its IC50 is less than 0.1 µM.

Question: Which IC50 does the source give for N#C[C@@H]1C[C@@]2(CN1C(=O)[C@H](CC1CC1)NC(=O)C(=O)Nc1cc(C(F)(F)F)ccn1)C(=O)Nc1ccccc12 [Example 168] here?
Answer: Its IC50 is less than 0.1 µM.

Question: N#C[C@@H]1C[C@@]2(CN1C(=O)[C@H](CC1CC1)NC(=O)C(=O)Nc1ccc(C(F)(F)F)cn1)C(=O)Nc1ccccc12 [Example 169] was tested. Which IC50 did it give?
Answer: Its IC50 is less than 0.1 µM.

Question: For N#C[C@@H]1C[C@@]2(CN1C(=O)[C@H](CC1CC1)NC(=O)C(=O)Nc1cccc(C(F)(F)F)n1)C(=O)Nc1ccccc12 [Example 170], which IC50 is on record?
Answer: Its IC50 is less than 0.1 µM.

Question: How did the IC50 turn out when N#C[C@@H]1C[C@@]2(CN1C(=O)[C@H](CC1CC1)NC(=O)C(=O)Nc1ccncc1C(F)(F)F)C(=O)Nc1ccccc12 [Example 171] was run?
Answer: The IC50 was less than 0.1 µM.

Question: N#C[C@@H]1C[C@@]2(CN1C(=O)[C@H](CC1CC1)NC(=O)C(=O)Nc1cnccc1C(F)(F)F)C(=O)Nc1ccccc12 [Example 172] was tested. Which IC50 did it give?
Answer: Its IC50 is less than 0.1 µM.

Question: How did the IC50 turn out when N#C[C@@H]1C[C@@]2(CN1C(=O)[C@H](CC1CC1)NC(=O)C(=O)Nc1cncc(C(F)(F)F)c1)C(=O)Nc1ccccc12 [Example 173] was run?
Answer: Its IC50 is less than 0.1 µM.

Question: Which IC50 does the source give for N#C[C@@H]1C[C@@]2(CN1C(=O)[C@H](CC1CC1)NC(=O)C(=O)Nc1ccc(C(F)(F)F)nc1)C(=O)Nc1ccccc12 [Example 174] here?
Answer: The IC50 was less than 0.1 µM.

Question: N#C[C@@H]1C[C@@]2(CN1C(=O)[C@H](CC1CC1)NC(=O)C(=O)Nc1cccnc1C(F)(F)F)C(=O)Nc1ccccc12 [Example 175] was tested. Which IC50 did it give?
Answer: Its IC50 is less than 0.1 µM.

Question: For N#C[C@@H]1C[C@@]2(CN1C(=O)[C@H](CC1CC1)NC(=O)C(=O)Nc1ccnc(C(F)(F)F)c1)C(=O)Nc1ccccc12 [Example 176], which IC50 is on record?
Answer: Its IC50 is less than 0.1 µM.

Question: CC(C)(C)C[C@H](NC(=O)C(=O)Nc1ccncc1C(F)(F)F)C(=O)N1C[C@]2(C[C@H]1C#N)C(=O)Nc1ccccc12 [Example 177] was tested. Which IC50 did it give?
Answer: Its IC50 is less than 0.1 µM.

Question: Which IC50 does the source give for CC(C)(C)C[C@H](NC(=O)C(=O)C1CC1)C(=O)N1C[C@]2(C[C@H]1C#N)C(=O)Nc1ccccc12 [Example 178] here?
Answer: The IC50 was 0.1 to 1 µM.

Question: For CC(C)(C)C[C@H](NC(=O)C(=O)OC(C)(C)C)C(=O)N1C[C@]2(C[C@H]1C#N)C(=O)Nc1ccccc12 [Example 188], which IC50 is on record?
Answer: Its IC50 is 0.1 to 1 µM.

Question: How did the IC50 turn out when CC(C)(C)C[C@H](NC(=O)C(=O)OCc1ccccc1)C(=O)N1C[C@]2(C[C@H]1C#N)C(=O)Nc1ccccc12 [Example 189] was run?
Answer: The IC50 was greater than 1 µM.

Question: Which IC50 does the source give for N#C[C@@H]1C[C@@]2(CN1C(=O)[C@H](CC1CC1)NC(=O)C(=O)Nc1c(Cl)cccc1C(F)(F)F)C(=O)Nc1ccccc12 [Example 194] here?
Answer: The IC50 was less than 0.1 µM.

Question: How did the IC50 turn out when CC(C)(C)C[C@H](NC(=O)C(=O)Nc1ccccc1C(F)(F)F)C(=O)N1C[C@]2(C[C@H]1C#N)C(=O)Nc1ccccc12 [Example 195] was run?
Answer: The IC50 was less than 0.1 µM.
